Data published in US10143201B2, “Fungicidal compositions” (Syngenta Crop Protection LLC, priority 2007, dated 2018).

Key:
Assay type in all cases: cell-based
Pyrenophora teres = experiment: Fungicidal action against Pyrenophora teres (net blotch), microtiter growth inhibition; conditions: for inhibition at 0.25 ppm: 0.2500 ppm; for inhibition at 0.5 ppm: 0.5000 ppm; for inhibition at 0.5 ppm / inhibition at 0.0625 ppm / inhibition at 0.125 ppm / inhibition at 1 ppm: read-out: % activity; for % activity: alone
Method: Example B6: Fungicidal Action Against Pyrenophora teres (Net Blotch)
(§1) Conidia of the fungus from cryogenic storage are directly mixed into nutrient broth (PDB potato dextrose broth). After placing a (DMSO) solution of the test compounds into a microtiter plate (96-well format) the nutrient broth containing the fungal spores is added. The test plates are incubated at 24° C. and the inhibition of growth is evaluated after 4 days. The expected fungicidal action is calculated according to the Colby method.

[1] = system: Pseudocercosporella herpotrichoides (syn. Tapesia yallundae); experiment: Fungicidal action against Pseudocercosporella herpotrichoides (eye spot of cereals), microtiter growth inhibition; conditions: alone; for inhibition at 0.0156 ppm / inhibition at 0.25 ppm: read-out: % activity
Method: Example B5: Funicidal Action Against Pseudocercosporella herpotrichoides (Syn. Tapesia yallundae), Eye Spot of Cereals
as §1

Septoria tritici = experiment: Fungicidal action against Septoria tritici (leaf blotch), microtiter growth inhibition; conditions: alone; for inhibition at 0.125 ppm: 0.1250 ppm
Method: Example B3: Fungicidal Action Against Septoria tritici (Leaf Blotch)
as §1

Botrytis cinerea = experiment: Fungicidal action against Botrytis cinerea (gray mould), microtiter growth inhibition; conditions: alone
Method: Example B2: Fungicidal Action Against Botrytis cinerea (Gray Mould)
as §1

Alternaria solani = experiment: Fungicidal action against Alternaria solani (early blight tomato/potato), microtiter growth inhibition; conditions: alone; for inhibition at 0.25 ppm / inhibition at 0.5 ppm: read-out: % activity
Method: Example B4: Fungicidal Action Against Alternaria solani (Early Blight Tomato/Potato)
as §1, with “after 3” for “after 4”

Gaeumannomyces graminis = experiment: Fungicidal action against Gaeumannomyces graminis (take-all of cereals), microtiter growth inhibition; conditions: Gaeumannomyces graminis, compound alone; for inhibition at 0.0039 ppm / inhibition at 0.0313 ppm / inhibition at 0.0625 ppm: read-out: % activity
Method: Example B7: Fungicidal Action Against Gaeumannomyces graminis (Take-all of Cereals)
as §1, with “Mycelial fragments” for “Conidia”, “24 C” for “24° C.”, “days.” for “days. The expected fungicidal action is calculated according to the Colby method.”

[2] = Pyrenophora teres, compound alone
[3] = Oculimacula yallundae, 0.0156 ppm
[4] = Oculimacula yallundae, 0.0313 ppm
[5] = Oculimacula yallundae, 0.1250 ppm
[6] = Zymoseptoria tritici, 0.0625 ppm, read-out: % activity
[7] = Zymoseptoria tritici, read-out: % activity
[8] = Pyrenophora teres, compound alone, 0.0625 ppm
[9] = Pyrenophora teres, compound alone, 0.1250 ppm
[10] = Oculimacula yallundae, 0.2500 ppm

N#Cc1c(Cl)c(Cl)c(Cl)c(C#N)c1Cl [Chlorothalonil, chlorothalonil]
0%: inhibition at 0.25 ppm (Pyrenophora teres; [2]) | inhibition at 0.0156 ppm [1, 3] | inhibition at 0.0625 ppm (Septoria tritici; [6]) | inhibition at 0.125 ppm (Septoria tritici; [7])
90%: inhibition at 0.125 ppm [1, 5]
50%: inhibition at 0.0313 ppm [1, 4]
20%: inhibition at 0.5 ppm (Pyrenophora teres; [2])

CO/C=C(/C(=O)OC)c1ccccc1COc1cccc(C(F)(F)F)n1 [Picoxystrobin, picoxystrobin]
0%: % activity (Botrytis cinerea; 0.0625 ppm) | % activity (Botrytis cinerea; 0.1250 ppm) | % activity (Botrytis cinerea; 0.2500 ppm) | % activity (Botrytis cinerea; 0.5000 ppm) | % activity (Botrytis cinerea; 1.0000 ppm) | % activity (Botrytis cinerea; 2.0000 ppm) | % activity (Alternaria solani; 0.0078 ppm) | % activity ([1]; 0.0078 ppm)
50%: % activity (Alternaria solani; 0.0625 ppm) | % activity (Alternaria solani; 0.1250 ppm) | % activity (Alternaria solani; 0.2500 ppm) | % activity (Alternaria solani; 0.5000 ppm) | % activity (Alternaria solani; 2.0000 ppm) | % activity (Pyrenophora teres; 0.0313 ppm) | % activity ([1]; 0.0313 ppm) | % activity ([1]; 0.0625 ppm) | % activity ([1]; 0.1250 ppm) | % activity ([1]; 0.2500 ppm) | % activity ([1]; 0.5000 ppm)
70%: % activity (Pyrenophora teres; 0.0625 ppm) | % activity ([1]; 1.0000 ppm) | % activity (Septoria tritici; 0.0313 ppm)
20%: % activity (Alternaria solani; 0.0156 ppm) | % activity (Alternaria solani; 0.0313 ppm) | % activity ([1]; 0.0156 ppm) | % activity (Septoria tritici; 0.0156 ppm)

CC(C)(C)C(O)(CCc1ccc(Cl)cc1)Cn1cncn1 (stereo not drawn) [Tebuconazole]
50%: inhibition at 0.125 ppm (Gaeumannomyces graminis; 0.1250 ppm)

CC(Cc1ccc(C(C)(C)C)cc1)CN1CCCCC1 (stereo not drawn) [Fenpropidin, fenpropidin]
0%: inhibition at 0.5 ppm (Botrytis cinerea; Botrytis cinerea, 0.5000 ppm) | inhibition at 1 ppm (Botrytis cinerea; Botrytis cinerea, 1.0000 ppm) | inhibition at 2 ppm (Botrytis cinerea; Botrytis cinerea, 2.0000 ppm) | inhibition at 0.125 ppm (Alternaria solani; Alternaria solani, 0.1250 ppm) | inhibition at 0.25 ppm (Alternaria solani; Alternaria solani, 0.2500 ppm) | inhibition at 0.5 ppm (Alternaria solani; Alternaria solani, 0.5000 ppm) | inhibition at 1 ppm (Alternaria solani; Alternaria solani, 1.0000 ppm) | inhibition at 0.0625 ppm (Pyrenophora teres; [8]) | inhibition at 0.125 ppm (Pyrenophora teres; [9]) | inhibition at 0.25 ppm (Pyrenophora teres; [2]) | inhibition at 0.5 ppm (Pyrenophora teres; [2]) | inhibition at 2 ppm (Pyrenophora teres; Pyrenophora teres, compound alone, 2.0000 ppm) | inhibition at 0.0156 ppm [1, 3] | inhibition at 0.0313 ppm [1, 4] | inhibition at 0.0625 ppm ([1]; Oculimacula yallundae, 0.0625 ppm) | inhibition at 0.125 ppm [1, 5] | inhibition at 0.25 ppm [1, 10]

CC1COC(Cn2cncn2)(c2ccc(Oc3ccc(Cl)cc3)cc2Cl)O1 (stereo not drawn) [Difenoconazole, difenoconazole]
90%: inhibition at 0.0625 ppm (Septoria tritici; [6])
0%: inhibition at 0.0039 ppm (Gaeumannomyces graminis) | inhibition at 0.0156 ppm (Gaeumannomyces graminis; 0.0156 ppm) | inhibition at 0.0313 ppm (Gaeumannomyces graminis) | inhibition at 0.0625 ppm (Gaeumannomyces graminis)
20%: inhibition at 0.0625 ppm (Pyrenophora teres; [8])
50%: inhibition at 0.125 ppm (Pyrenophora teres; [9]) | inhibition at 0.25 ppm (Pyrenophora teres; [2]) | inhibition at 0.125 ppm [1, 5] | inhibition at 0.0313 ppm (Septoria tritici; Zymoseptoria tritici, 0.0313 ppm)
70%: inhibition at 0.5 ppm (Pyrenophora teres; [2]) | inhibition at 1 ppm (Pyrenophora teres; [2])

Cc1cc(C2CC2)nc(Nc2ccccc2)n1 [Cyprodinil, cyprodinil]
0%: inhibition at 0.125 ppm (Septoria tritici; [7]) | inhibition at 0.25 ppm (Septoria tritici; Zymoseptoria tritici, 0.2500 ppm, read-out: % activity) | inhibition at 0.5 ppm (Septoria tritici; Zymoseptoria tritici, 0.5000 ppm, read-out: % activity) | inhibition at 1 ppm (Septoria tritici; Zymoseptoria tritici, 1.0000 ppm) | inhibition at 2 ppm (Septoria tritici; Zymoseptoria tritici, 2.0000 ppm)
70%: inhibition at 0.0313 ppm [1, 4]
20%: inhibition at 0.0313 ppm (Pyrenophora teres; Pyrenophora teres, compound alone, 0.0313 ppm) | inhibition at 0.0625 ppm (Pyrenophora teres; [8]) | inhibition at 0.0156 ppm [1, 3]
50%: inhibition at 0.25 ppm (Alternaria solani; Alternaria solani, 0.2500 ppm) | inhibition at 0.125 ppm (Pyrenophora teres; [9]) | inhibition at 0.25 ppm (Pyrenophora teres; [2])

Fc1ccc([C@]2(Cn3cncn3)O[C@H]2c2ccccc2Cl)cc1 (racemic) [Epoxiconazole, epoxiconazole]
0%: inhibition at 0.0156 ppm [1, 3]
50%: inhibition at 0.5 ppm (Pyrenophora teres; [2])
20%: inhibition at 0.125 ppm (Pyrenophora teres; [9])
90%: inhibition at 0.25 ppm [1, 10]
70%: inhibition at 1 ppm (Pyrenophora teres; [2]) | inhibition at 0.125 ppm [1, 5]

CO/C=C(/C(=O)OC)c1ccccc1Oc1cc(Oc2ccccc2C#N)ncn1 [Azoxystrobin, azoxystrobin]
70%: % activity (Pyrenophora teres; 0.1250 ppm) | % activity (Septoria tritici; 0.0625 ppm)
50%: % activity (Alternaria solani; 0.2500 ppm) | % activity (Alternaria solani; 0.5000 ppm) | % activity (Pyrenophora teres; 0.0625 ppm)
20%: % activity (Alternaria solani; 0.0156 ppm) | % activity (Alternaria solani; 0.0313 ppm) | % activity (Alternaria solani; 0.0625 ppm) | % activity (Pyrenophora teres; 0.0313 ppm)
0%: % activity (Botrytis cinerea; 0.1250 ppm) | % activity (Botrytis cinerea; 0.2500 ppm) | % activity (Botrytis cinerea; 0.5000 ppm) | % activity (Botrytis cinerea; 1.0000 ppm) | % activity (Botrytis cinerea; 2.0000 ppm)

CC(C1CC1)C(O)(Cn1cncn1)c1ccc(Cl)cc1 (stereo not drawn) [Cyproconazole, cyproconazole]
0%: inhibition at 0.125 ppm (Alternaria solani; Alternaria solani, 0.1250 ppm) | inhibition at 0.25 ppm (Alternaria solani; Alternaria solani, 0.2500 ppm) | inhibition at 0.0039 ppm (Gaeumannomyces graminis) | inhibition at 0.0313 ppm (Gaeumannomyces graminis)
70%: inhibition at 0.25 ppm [1, 10]
20%: inhibition at 0.5 ppm (Alternaria solani; Alternaria solani, 0.5000 ppm) | inhibition at 0.0625 ppm (Gaeumannomyces graminis)
